Data reported in ChEMBL document CHEMBL5653631, “A Potent and Selective ULK1 Inhibitor Suppresses Autophagy and Sensitizes Cancer Cells to Nutrient Stress” (iScience, 2018).
One block for each compound: values may come before it.

Experiments:
[1] = molecular target: T1, Serine/threonine-protein kinase ULK3 (Homo sapiens) (UniProt Q6PHR2); assay: Inhibition of human recombinant ULK3 at 500 nM related to control ULK1
T1 sequence (whole entry): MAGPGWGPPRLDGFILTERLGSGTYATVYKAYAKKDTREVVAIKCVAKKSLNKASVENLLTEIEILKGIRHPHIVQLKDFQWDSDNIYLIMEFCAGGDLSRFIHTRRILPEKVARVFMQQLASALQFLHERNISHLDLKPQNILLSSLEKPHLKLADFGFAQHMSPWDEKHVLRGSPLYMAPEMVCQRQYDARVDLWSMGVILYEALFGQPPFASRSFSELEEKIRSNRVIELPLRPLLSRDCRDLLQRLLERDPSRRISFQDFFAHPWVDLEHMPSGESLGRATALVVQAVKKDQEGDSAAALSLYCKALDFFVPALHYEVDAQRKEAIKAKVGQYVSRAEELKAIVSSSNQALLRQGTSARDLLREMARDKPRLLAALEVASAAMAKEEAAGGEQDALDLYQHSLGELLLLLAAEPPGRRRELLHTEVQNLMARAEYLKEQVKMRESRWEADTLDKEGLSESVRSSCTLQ

[2] = molecular target: Ribosomal protein S6 kinase alpha-4 (Homo sapiens) (UniProt O75676); assay: Inhibition of human recombinant MSK2 at 500 nM in presence of ATP by radiometric assay relative to control
[3] = molecular target: Serine/threonine-protein kinase 33 (Homo sapiens) (UniProt Q9BYT3); assay: Inhibition of human recombinant STK33 at 500 nM in presence of ATP by radiometric assay relative to control
[4] = molecular target: T2, Serine/threonine-protein kinase NLK (Homo sapiens) (UniProt Q9UBE8); assay: Inhibition of human recombinant NLK at 500 nM in presence of ATP by radiometric assay relative to control
T2 sequence (whole entry): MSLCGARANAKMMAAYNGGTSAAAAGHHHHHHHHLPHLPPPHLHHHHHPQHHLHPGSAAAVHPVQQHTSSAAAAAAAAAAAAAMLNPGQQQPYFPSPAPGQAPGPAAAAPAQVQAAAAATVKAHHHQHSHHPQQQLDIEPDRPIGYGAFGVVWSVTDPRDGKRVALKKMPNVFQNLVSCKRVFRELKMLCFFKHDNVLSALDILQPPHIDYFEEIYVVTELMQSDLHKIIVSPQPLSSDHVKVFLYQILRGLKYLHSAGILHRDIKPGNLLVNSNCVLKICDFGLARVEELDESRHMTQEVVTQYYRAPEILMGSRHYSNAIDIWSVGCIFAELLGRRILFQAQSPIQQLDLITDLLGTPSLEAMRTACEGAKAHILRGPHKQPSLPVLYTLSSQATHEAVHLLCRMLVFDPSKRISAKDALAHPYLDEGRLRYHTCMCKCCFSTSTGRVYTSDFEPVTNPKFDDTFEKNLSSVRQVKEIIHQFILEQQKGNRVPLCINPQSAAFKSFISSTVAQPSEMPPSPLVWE

[5] = molecular target: Casein kinase I isoform gamma-1 (Homo sapiens) (UniProt Q9HCP0); assay: Inhibition of human recombinant CK1g1 at 15 nM related to control ULK1
[6] = molecular target: Tyrosine-protein kinase Fes/Fps (Homo sapiens) (UniProt P07332); assay: Inhibition of human recombinant FES at 15 nM related to control ULK1
[7] = molecular target: Serine/threonine-protein kinase PAK 1 (Homo sapiens) (UniProt Q13153); assay: Inhibition of human recombinant PAK1 at 15 nM in presence of ATP by radiometric assay relative to control
[8] = molecular target: Serine/threonine-protein kinase N1 (Homo sapiens) (UniProt Q16512); assay: Inhibition of human recombinant PKN1 at 15 nM in presence of ATP by radiometric assay relative to control
Homo sapiens = organism: Homo sapiens; assay: Inhibition of human recombinant CK1d at 40 nM in presence of ATP by radiometric assay relative to control
[9] = molecular target: T3, Serine/threonine-protein kinase 17A (Homo sapiens) (UniProt Q9UEE5); assay: Inhibition of human recombinant DRAK1 at 40 nM related to control ULK1
T3 sequence (whole entry): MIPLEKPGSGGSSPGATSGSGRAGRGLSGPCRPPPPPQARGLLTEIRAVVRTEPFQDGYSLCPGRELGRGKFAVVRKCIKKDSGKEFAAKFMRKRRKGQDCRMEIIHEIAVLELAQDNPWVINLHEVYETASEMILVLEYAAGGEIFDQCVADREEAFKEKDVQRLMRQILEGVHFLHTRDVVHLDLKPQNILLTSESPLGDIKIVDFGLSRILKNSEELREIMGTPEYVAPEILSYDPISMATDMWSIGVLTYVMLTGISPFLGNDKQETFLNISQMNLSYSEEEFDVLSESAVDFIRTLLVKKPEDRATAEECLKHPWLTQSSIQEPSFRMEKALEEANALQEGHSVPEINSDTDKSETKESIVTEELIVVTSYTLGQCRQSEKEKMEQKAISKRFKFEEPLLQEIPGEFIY

[10] = molecular target: T4, Inhibitor of nuclear factor kappa-B kinase subunit alpha (Homo sapiens) (UniProt O15111); assay: Inhibition of human recombinant IKKa at 40 nM related to control ULK1
T4 sequence (whole entry): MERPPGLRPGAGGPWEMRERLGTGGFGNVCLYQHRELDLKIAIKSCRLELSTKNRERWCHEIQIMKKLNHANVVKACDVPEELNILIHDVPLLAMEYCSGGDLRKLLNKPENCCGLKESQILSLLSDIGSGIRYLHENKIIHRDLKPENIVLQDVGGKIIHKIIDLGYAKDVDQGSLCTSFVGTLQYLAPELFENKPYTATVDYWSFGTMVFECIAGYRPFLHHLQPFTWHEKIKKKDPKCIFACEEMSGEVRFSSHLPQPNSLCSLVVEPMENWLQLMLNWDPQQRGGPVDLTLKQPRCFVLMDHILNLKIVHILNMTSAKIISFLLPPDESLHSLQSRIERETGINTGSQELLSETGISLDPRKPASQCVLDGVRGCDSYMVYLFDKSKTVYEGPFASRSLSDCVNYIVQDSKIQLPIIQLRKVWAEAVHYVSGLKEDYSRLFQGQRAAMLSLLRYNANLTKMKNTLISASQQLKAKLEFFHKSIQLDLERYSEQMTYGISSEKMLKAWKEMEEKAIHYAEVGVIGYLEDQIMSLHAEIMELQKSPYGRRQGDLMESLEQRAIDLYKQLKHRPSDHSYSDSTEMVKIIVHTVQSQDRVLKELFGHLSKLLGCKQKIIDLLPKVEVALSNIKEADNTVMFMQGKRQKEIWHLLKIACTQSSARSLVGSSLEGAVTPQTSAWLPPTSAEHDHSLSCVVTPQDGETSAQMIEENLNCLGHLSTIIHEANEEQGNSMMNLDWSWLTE

[11] = molecular target: Receptor tyrosine-protein kinase erbB-2 (Homo sapiens) (UniProt P04626); assay: Inhibition of human recombinant ErbB2 at 40 nM in presence of ATP by radiometric assay relative to control
Sequence of Receptor tyrosine-protein kinase erbB-2 (Homo sapiens) (P04626 whole entry): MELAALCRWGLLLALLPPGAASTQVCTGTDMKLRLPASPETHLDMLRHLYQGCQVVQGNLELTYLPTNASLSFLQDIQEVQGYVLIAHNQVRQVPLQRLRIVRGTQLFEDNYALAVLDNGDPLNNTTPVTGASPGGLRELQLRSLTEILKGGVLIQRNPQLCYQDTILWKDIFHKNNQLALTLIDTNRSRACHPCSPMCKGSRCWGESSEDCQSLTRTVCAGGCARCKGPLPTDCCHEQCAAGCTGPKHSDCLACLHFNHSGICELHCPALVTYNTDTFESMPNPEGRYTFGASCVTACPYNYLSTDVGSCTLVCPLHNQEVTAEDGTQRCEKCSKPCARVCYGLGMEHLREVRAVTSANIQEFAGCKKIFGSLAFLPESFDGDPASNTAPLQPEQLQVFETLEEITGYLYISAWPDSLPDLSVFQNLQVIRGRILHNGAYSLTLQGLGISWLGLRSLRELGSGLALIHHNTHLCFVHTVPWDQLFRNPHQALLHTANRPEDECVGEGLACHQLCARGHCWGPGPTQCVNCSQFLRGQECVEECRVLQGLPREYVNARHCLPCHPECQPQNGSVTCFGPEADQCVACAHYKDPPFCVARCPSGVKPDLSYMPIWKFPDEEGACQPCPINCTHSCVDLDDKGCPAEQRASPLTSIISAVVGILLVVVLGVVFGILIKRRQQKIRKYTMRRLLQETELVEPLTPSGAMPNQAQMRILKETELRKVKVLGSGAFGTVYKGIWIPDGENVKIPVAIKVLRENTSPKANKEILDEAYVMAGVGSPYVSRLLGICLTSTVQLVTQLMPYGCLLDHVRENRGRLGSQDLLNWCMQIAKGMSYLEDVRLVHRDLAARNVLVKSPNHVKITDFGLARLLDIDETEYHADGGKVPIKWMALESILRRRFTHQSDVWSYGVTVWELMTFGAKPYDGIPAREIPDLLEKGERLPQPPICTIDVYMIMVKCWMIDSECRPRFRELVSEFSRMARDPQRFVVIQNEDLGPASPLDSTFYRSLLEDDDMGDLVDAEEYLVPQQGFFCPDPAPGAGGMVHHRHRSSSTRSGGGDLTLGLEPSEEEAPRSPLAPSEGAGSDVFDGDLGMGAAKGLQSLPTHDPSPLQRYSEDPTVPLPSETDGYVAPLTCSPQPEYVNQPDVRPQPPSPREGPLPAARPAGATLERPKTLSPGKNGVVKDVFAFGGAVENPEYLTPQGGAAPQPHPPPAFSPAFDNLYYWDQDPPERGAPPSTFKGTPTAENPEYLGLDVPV

Sequence of Casein kinase I isoform gamma-1 (Homo sapiens) (Q9HCP0 whole entry, looked up, canonical isoform): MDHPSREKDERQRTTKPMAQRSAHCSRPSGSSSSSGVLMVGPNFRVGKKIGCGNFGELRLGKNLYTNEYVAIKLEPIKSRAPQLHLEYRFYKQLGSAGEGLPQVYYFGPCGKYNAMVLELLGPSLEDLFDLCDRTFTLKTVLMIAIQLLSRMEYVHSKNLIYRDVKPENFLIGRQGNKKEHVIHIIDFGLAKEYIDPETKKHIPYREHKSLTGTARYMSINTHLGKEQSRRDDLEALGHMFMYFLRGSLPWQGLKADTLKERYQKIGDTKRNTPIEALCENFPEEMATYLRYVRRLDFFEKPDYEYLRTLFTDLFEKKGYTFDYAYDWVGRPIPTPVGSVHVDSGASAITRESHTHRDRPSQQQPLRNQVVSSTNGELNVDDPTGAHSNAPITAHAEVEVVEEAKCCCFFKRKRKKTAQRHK
Sequence of Serine/threonine-protein kinase 33 (Homo sapiens) (Q9BYT3 whole entry, looked up): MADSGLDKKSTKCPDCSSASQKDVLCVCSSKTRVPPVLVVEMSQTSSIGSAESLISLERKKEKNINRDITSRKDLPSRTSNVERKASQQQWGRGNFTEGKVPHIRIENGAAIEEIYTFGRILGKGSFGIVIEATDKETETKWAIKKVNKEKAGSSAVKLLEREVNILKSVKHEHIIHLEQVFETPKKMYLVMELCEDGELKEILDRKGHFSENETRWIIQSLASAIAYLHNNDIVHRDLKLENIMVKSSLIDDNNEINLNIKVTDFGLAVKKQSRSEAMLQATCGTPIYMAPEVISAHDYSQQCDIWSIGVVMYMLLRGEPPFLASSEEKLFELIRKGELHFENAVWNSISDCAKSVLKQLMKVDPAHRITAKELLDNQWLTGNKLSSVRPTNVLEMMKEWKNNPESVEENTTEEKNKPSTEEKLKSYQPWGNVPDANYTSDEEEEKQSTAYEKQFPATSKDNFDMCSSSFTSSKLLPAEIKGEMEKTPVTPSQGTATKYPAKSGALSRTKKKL
Sequence of Serine/threonine-protein kinase PAK 1 (Homo sapiens) (Q13153 whole entry, looked up): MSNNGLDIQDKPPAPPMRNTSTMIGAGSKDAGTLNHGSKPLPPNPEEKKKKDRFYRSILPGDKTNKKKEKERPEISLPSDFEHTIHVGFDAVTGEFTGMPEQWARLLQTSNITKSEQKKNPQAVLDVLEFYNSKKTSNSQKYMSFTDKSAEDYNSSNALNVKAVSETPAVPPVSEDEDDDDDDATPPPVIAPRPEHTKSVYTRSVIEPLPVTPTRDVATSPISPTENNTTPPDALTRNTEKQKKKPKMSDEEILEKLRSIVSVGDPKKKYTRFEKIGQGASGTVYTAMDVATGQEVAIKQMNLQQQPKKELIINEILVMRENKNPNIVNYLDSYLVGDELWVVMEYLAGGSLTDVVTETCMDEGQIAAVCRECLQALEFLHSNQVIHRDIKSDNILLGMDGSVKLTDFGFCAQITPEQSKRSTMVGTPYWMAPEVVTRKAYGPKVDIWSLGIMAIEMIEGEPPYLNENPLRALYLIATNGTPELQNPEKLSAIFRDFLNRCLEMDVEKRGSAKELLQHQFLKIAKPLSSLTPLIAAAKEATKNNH
Sequence of Tyrosine-protein kinase Fes/Fps (Homo sapiens) (P07332 whole entry): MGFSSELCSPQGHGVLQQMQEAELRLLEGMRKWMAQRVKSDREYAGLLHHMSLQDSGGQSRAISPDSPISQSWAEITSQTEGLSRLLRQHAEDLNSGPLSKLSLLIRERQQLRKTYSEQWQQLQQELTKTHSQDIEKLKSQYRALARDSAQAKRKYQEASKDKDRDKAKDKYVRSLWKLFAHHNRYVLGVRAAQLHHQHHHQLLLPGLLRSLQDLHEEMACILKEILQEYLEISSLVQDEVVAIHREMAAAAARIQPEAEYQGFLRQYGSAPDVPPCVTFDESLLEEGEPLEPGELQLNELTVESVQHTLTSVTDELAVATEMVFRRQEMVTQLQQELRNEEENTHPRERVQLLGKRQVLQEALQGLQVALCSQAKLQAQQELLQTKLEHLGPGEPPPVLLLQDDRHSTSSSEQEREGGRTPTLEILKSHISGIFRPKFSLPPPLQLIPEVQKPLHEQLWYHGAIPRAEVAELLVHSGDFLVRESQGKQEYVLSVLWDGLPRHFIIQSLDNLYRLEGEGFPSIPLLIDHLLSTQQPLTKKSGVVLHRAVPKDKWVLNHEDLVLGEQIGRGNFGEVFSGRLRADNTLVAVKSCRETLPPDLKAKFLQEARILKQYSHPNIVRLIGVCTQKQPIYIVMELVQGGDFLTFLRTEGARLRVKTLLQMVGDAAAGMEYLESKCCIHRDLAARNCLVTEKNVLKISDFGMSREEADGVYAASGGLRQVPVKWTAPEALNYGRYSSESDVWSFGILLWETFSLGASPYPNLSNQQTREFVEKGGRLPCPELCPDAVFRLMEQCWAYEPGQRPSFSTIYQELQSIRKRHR
Sequence of Ribosomal protein S6 kinase alpha-4 (Homo sapiens) (O75676 whole entry, looked up): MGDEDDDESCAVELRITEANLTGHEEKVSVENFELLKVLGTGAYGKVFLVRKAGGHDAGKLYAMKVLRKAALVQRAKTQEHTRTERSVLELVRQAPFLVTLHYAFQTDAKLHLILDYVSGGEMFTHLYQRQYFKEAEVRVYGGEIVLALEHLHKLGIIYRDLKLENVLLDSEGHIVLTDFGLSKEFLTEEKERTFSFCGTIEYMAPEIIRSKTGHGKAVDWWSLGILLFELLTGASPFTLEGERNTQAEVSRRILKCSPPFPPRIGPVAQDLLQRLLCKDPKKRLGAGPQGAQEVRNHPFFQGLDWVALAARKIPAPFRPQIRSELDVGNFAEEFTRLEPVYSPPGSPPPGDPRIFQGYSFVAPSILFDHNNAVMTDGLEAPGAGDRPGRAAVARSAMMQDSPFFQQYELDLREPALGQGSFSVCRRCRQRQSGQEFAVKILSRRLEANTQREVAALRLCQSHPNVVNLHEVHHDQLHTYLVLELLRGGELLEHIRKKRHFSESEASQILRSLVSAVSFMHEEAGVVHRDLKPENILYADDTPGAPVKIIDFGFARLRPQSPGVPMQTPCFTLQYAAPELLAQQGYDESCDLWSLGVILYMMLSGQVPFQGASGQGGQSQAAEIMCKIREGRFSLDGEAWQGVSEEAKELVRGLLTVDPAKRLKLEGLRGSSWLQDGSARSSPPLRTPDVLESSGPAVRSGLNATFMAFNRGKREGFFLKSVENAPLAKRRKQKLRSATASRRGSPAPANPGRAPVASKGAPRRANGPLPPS

fold change (FC) [1]: 1.14 | inhibition [2]: 0% | inhibition [3]: 4% | inhibition [4]: 4%
Structure (SMILES): CNC(=O)c1ccccc1Oc1nc(Nc2cc(OC)c(OC)c(OC)c2)ncc1Br

fold change (FC) [5]: 0 | fold change (FC) [6]: 0 | inhibition [7]: 0% | inhibition [8]: 0%
Structure (SMILES): CC(C)[C@H](NC(=O)c1cc(-c2cnn3cc(-c4ccc(OCCN5CCCCC5)cc4)cnc23)cs1)C(F)(F)F

inhibition (Homo sapiens): 3% | fold change (FC) [9]: 1.07 | fold change (FC) [10]: 0 | inhibition [11]: 0%
Structure (SMILES): O=C(N[C@@H](C1CC1)C(F)(F)F)c1cc(-c2cnn3cc(-c4ccc(F)cc4)cnc23)cs1
